Consider three molecules from patent publication US9814758B2, “Inhibitors of apoptosis and uses thereof” (CENTRE NATIONAL DE LA RECHERCHE SCIENTIFIQUE-CNRS, priority 2010, dated 2017).

Data set [1] is described as follows: Stability in 20% mouse serum (reverse-phase HPLC). In kind it is in vitro ADME. The note with it: 37° C.; for remaining at 2 h: 2 h incubation, read-out: peptide still intact; for peptide degradation: after 24 hours. As for the experimental part:
FIG. 3: Evaluation of Tat-DAXXp and Pip2b-DAXXp protease ability. (A) Stability measurements of Tat-DAXXp and Pip2b-DAXXp conjugates in fetal bovine serum (FBS, BioWest) and (B) freshly prepared mouse serum (MS). Peptides were incubated with 20% serum at 37° C. for 0 h, 1 h, 2 h, 4 h, 8 h, 24 h, and 48 h, and 50 μl of the incubation mixture was precipitated in 100 μl 10% dichloroacetic acid (DCA) in H2O/CH3CN (50/50). The samples were mixed and kept at −20° C. The precipitated serum proteins were separated by centrifugation (14,000 rpm, 10 minutes) and the supernatant was analyzed by reverse-phase HPLC (measurement of the peak area in mV*sec). n≧2 for each condition.

The test system of data set [2] is C57Bl6 mice, myocardial ischemia-reperfusion. Kind of data set: Myocardial ischemia-reperfusion IR60' (40 min ischemia, 60 min reperfusion). Type of data set: in vivo, mouse. As for the experimental part:
(§1) FIG. 11: In vivo experimental protocol. C57Bl6 mice underwent a surgical protocol of myocardial ischemia-reperfusion (IR). The black box represents the period of ischemia to which the mice were submitted. Infarct size or cell death measurements were performed at the end of surgery for each protocol (indicated by ↑). IR60′: 40 minutes of Ischemia, 60 minutes of Reperfusion. IR24h: 40 minutes Ischemia and 24 hours Reperfusion.
FIG. 12: Cardioprotective effects of Tat-DAXXp (1 mg/kg—IV) in mice subjected to IR60′. Infarct size (in % of area at risk) and internucleosomal DNA fragmentation determined by ELISA were quantified in mice subjected to IR60′ and treated with Tat, Tat-DAXXp or Tat-scrDAXXp (1 mg/kg) as well as with DAXXp (10 mg/kg) (intravenous injection (IV) 5 minutes before reperfusion). Means±SEM were plotted for (A): Area at risk/LV mass (left ventricle), (B): Infarct size (in % of area at risk) and (C): (I/NI ratio) corresponding to the ratio of soluble nucleosome in the ischemic portion versus the non-ischemic portion of LV tissues. Statistical analysis was performed using One-way ANOVA with Neuman-Keuls post test for multiple comparisons (GraphPad Prism software). P<0.05, P<0.01 and P<0.001 versus Tat-DAXXp were noted *, **, and *** respectively. P=ns (not significant) for P>0.05.
FIG. 13: Dose response for Tat-DAXXp and DAXXp in mice subjected to IR60′. Infarct size (in % of area at risk) and internucleosomal DNA fragmentation determined by ELISA were quantified in mice subjected to IR60′ and treated with Tat (1 mg/kg), Tat-DAXXp (0.1, 1 and 10 mg/kg) or DAXXp (0.1, 1 and 10 mg/kg) injected intravenously 5 minutes before reperfusion. Means±SEM were plotted for (A): Area at risk/LV mass (left ventricle), (B): Infarct size (in % of area at risk) and (C): (I/NI ratio) corresponding to the ratio of soluble nucleosome in the ischemic versus the non-ischemic portion of LV tissues.
In a second step, the cardioprotective effects of DAXXp were evaluated in an in vivo model of myocardial ischemia-reperfusion. Acute myocardial ischemia and reperfusion were performed in C57Bl6 mice subjected to a surgical model of reversible coronary occlusion. Male mice (22-28 g) were anesthetized and ventilated via a tracheal intubation using a Harvard rodent respirator. Body temperature was maintained between 36.8° C. and 37.0° C. via a thermo-regulated surgical table. The chest was opened by left lateral thoracotomy and a reversible coronary artery snare occluder was placed around the left coronary artery. Mice were randomly allocated to two different surgical protocols of myocardial ischemia-reperfusion (FIG. 11). At the end of reperfusion, the artery was re-occluded and phtalocyanine blue dye was injected into the left ventricle cavity and allowed to perfuse the non-ischemic portions of the myocardium. To determine the effect of DAXXp on myocardial infarct size, peptides were administered intravenously (caudal vein) 5 minutes before reperfusion during the surgical protocol of ischemia-reperfusion. The control groups were treated with Tat or Pip2b peptide (for CPP alone). The dose of 1 mg/kg was chosen (μmolar range) and dose responses for 0.1 and 10 mg/kg were also tested.
At the end of reperfusion, mice were re-anaesthetized, the coronary ligature definitively tightened, the blue dye injected and the harvested left ventricles were dedicated to infarct size (TTC method, Schwartz et al, J Thromb. Thromb., 2000; 10: 181-187) or DNA fragmentation measurements (Cell death detection ELISA^PLUS kit, Roche Diagnostics) in order to investigate the cardioprotective effects against ischemia-reperfusion injuries.

Data set [3] has the same test system. Kind of data set: Myocardial ischemia-reperfusion IR24h (40 min ischemia, 24 h reperfusion). In kind it is in vivo, mouse. The note with it: reperfusion prolonged from 1 hour to 24 hours. On the procedure:
as §1
FIG. 14: Cardioprotective effects of Tat-DAXXp (1 mg/kg-IV) in mice subjected to IR24h. Infarct size (in % of area at risk) and internucleosomal DNA fragmentation determined by ELISA were quantified in mice subjected to IR24H and treated with Tat, Tat-DAXXp or Tat-scrDAXXp (1 mg/kg) as well as with DAXXp (10 mg/kg) (IV injection 5 minutes before reperfusion). […]
FIG. 15: Dose response for Tat-DAXXp and DAXXp in mice subjected to IR24h. Area at risk and infarct size (in % of area at risk) were measured in mice subjected to IR24h and treated by Tat (1 mg/kg), Tat-DAXXp (0.1, 1 and 10 mg/kg) or DAXXp (0.1, 1 and 10 mg/kg) injected intravenously 5 minutes before reperfusion. […]
In a second step, the cardioprotective effects of DAXXp were evaluated in an in vivo model of myocardial ischemia-reperfusion. […]

Non-standard residues stand in square brackets, D forms with d. Residues, ends and D or L forms follow the SMILES beside them. No end group written: not given here. Ahx = NCCCCCC(=O)O

On to `CC[C@H](C)[C@H](NC(=O)[C@H](Cc1c[nH]cn1)NC(=O)[C@@H](NC(=O)[C@H](CCCNC(=N)N)NC(=O)CCCCCNC(=O)[C@H](CCCNC(=N)N)NC(=O)[C@H](CCCNC(=N)N)NC(=O)CCCCCNC(=O)[C@H](CCCNC(=N)N)NC(=O)[C@H](CCCNC(=N)N)NC(=O)CCCCCNC(=O)[C@@H](N)CCCNC(=N)N)[C@@H](C)CC)C(=O)N[C@@H](CC(C)C)C(=O)N[C@@H](Cc1ccccc1)C(=O)N[C@@H](CCC(N)=O)C(=O)N[C@@H](CC(N)=O)C(=O)N[C@H](CCCNC(=N)N)C(=O)N[C@@H](CCCNC(=N)N)C(=O)N[C@@H](CCSC)C(=O)N[C@@H](CCCCN)C(=O)N[C@@H](Cc1c[nH]c2ccccc12)C(=O)N[C@@H](Cc1c[nH]cn1)C(=O)N[C@@H](CCCCN)C(=O)N[C@@H](CCCCN)C(=O)N[C@@H](CCCCN)C(=O)N[C@@H](CO)C(=O)N[C@@H](CCCNC(=N)N)C(=O)N[C@@H](CCCCN)C(=O)N[C@@H](CCC(=O)O)C(=O)N[C@@H](CCCCN)C(=O)N[C@@H](CCCCN)C(=O)N[C@@H](CCC(N)=O)C(=O)N[C@H](C(=O)NCC(=O)N[C@@H](CO)C(=O)NCC(=O)N1CCC[C@H]1C(=O)N[C@@H](CC(C)C)C(=O)NCC(N)=O)[C@@H](C)O` [Pip2b-DAXXp, (RXR)3-IHILFQNrRMKWHK-KKSRKEKKQTGSGPLG-NH2] (H-R[Ahx]RR[Ahx]RR[Ahx]RIHILFQN[dR]RMKWHKKKSRKEKKQTGSGPLG-NH2; N-terminus assumed), for which, in data set [1], the remaining at 2 h was over 70% and the peptide degradation result is given as “all the peptide are degraded”. Further, the “cardioprotection (infarct size, DNA fragmentation)” value in data set [2] (IR60', data not shown) is “not observed”.
As to “GRKKRRQRRRPPQKKSRKEKKQTGSGPLG-NH2 [Tat-DAXXp, GRKKRRQRRRPPQ-KKSRKEKKQTGSGPLG-NH2]”, in data set [1], the remaining at 2 h was over 70% and the peptide degradation entry is listed as “all the peptide are degraded”. The “specific DNA fragmentation in left ventricles versus Tat-injected mice” value in data set [2] (1 mg/kg IV, IR60') is reported as “drastic decrease”. The “decrease of infarct size versus Tat peptide alone” value in data set [2] (1 mg/kg intravenously 5 min before reperfusion, after 1 hour-reperfusion, p<0.01) is recorded as 53.4%. In addition, the “dose of maximal effect” value in data set [2] (dose response 0.1, 1 and 10 mg/kg IV, FIG. 13) is on record as 1 mg/kg. Further, in data set [3], the “cardioprotective effects at prolonged reperfusion” value was “maintained”.
In the case of “KKSRKEKKQTGSGPLG-NH2 [DAXXp, KKSRKEKKQTGSGPLG-NH2]”, the “decrease of infarct size” value in data set [2] (10 mg/kg injected alone (without CPP)) is “to the same extent than Tat-DAXXp”.
